Experimental data published in ChEMBL document CHEMBL1201862, “PubChem BioAssay data set” (2004).
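Method: 48-hour compound exposure of cells in 96-well plates, five concentrations, linear interpolation of endpoints. The concentration for 50% growth inhibition is given as GI50.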 Calls of active or inactive are those of the source. No stated cut-off is given here; in the data, active = GI50 up to about 1.1 µM and inactive = higher.

Columns and labels:
Assay in all cases: growth of human tumour cells (NCI), 48 h
[1] = test system: 786-0
[2] = test system: CCRF-CEM
[3] = test system: DU-145
[4] = test system: HCC 2998
[5] = test system: HL-60
[6] = test system: K562
[7] = test system: M14
[8] = test system: MCF7
[9] = test system: MDA-MB-231
[10] = test system: NCI-H226
[11] = test system: NCI-H23
[12] = test system: NCI/ADR-RES
[13] = test system: OVCAR-8
[14] = test system: SK-OV-3
[15] = test system: SNB-19
[16] = test system: SR
[17] = test system: SW-620
[18] = test system: T47D
[19] = test system: TK-10
[20] = test system: UACC-257

Structure (SMILES): N#Cc1c(-c2ccc(Cl)cc2)cc(-c2ccc(Nc3ccnc4cc(C(F)(F)F)ccc34)cc2)[nH]c1=O
- GI50 [1]: 12.4 µM (inactive)
- GI50 [2]: 3.7 µM (inactive)
- GI50 [3]: 22.9 µM (inactive)
- GI50 [4]: > 100 µM (inactive)
- GI50 [5]: 10.8 µM (inactive)
- GI50 [6]: 3.52 µM (inactive)
- GI50 [7]: 4.31 µM (inactive)
- GI50 [8]: 4.79 µM (inactive)
- GI50 [9]: 19.3 µM (inactive)
- GI50 [10]: > 92.3 µM (inactive)
- GI50 [11]: > 45 µM (inactive)
- GI50 [12]: > 100 µM (inactive)
- GI50 [13]: 38.3 µM (inactive)
- GI50 [14]: 28.1 µM (inactive)
- GI50 [15]: 9.73 µM (inactive)
- GI50 [16]: 2.72 µM (inactive)
- GI50 [17]: 14 µM (inactive)
- GI50 [18]: 4.79 µM (inactive)
- GI50 [19]: 24.4 µM (inactive)
- GI50 [20]: 37.2 µM (inactive)

Structure (SMILES): O=[N+]([O-])/C=C\c1c[nH]c2ccc(OCc3ccccc3)cc12
- GI50 [1]: 1.93 µM (inactive)
- GI50 [2]: 4.26 µM (inactive)
- GI50 [3]: 7.46 µM (inactive)
- GI50 [4]: 1.67 µM (inactive)
- GI50 [5]: 2.62 µM (inactive)
- GI50 [6]: 2.55 µM (inactive)
- GI50 [7]: 2.18 µM (inactive)
- GI50 [8]: 6.49 µM (inactive)
- GI50 [9]: 3.57 µM (inactive)
- GI50 [10]: 2.18 µM (inactive)
- GI50 [11]: 3.4 µM (inactive)
- GI50 [12]: 19.3 µM (inactive)
- GI50 [13]: 4.27 µM (inactive)
- GI50 [14]: 17.5 µM (inactive)
- GI50 [15]: 4.89 µM (inactive)
- GI50 [16]: 2.03 µM (inactive)
- GI50 [17]: 2.51 µM (inactive)
- GI50 [18]: 2.64 µM (inactive)
- GI50 [19]: 10.4 µM (inactive)
- GI50 [20]: 1.64 µM (inactive)

Structure (SMILES): O=C(CNc1cccc([N+](=O)[O-])c1)Nn1c(-c2ccccc2)nc2ccccc2c1=O
- GI50 [1]: 0.399 µM (active)
- GI50 [2]: 0.316 µM (active)
- GI50 [3]: 2.38 µM (inactive)
- GI50 [4]: 1.49 µM (inactive)
- GI50 [5]: 0.422 µM (active)
- GI50 [6]: 0.528 µM (active)
- GI50 [8]: 0.389 µM (active)
- GI50 [9]: 0.776 µM (active)
- GI50 [10]: 0.2 µM (active)
- GI50 [11]: 0.653 µM (active)
- GI50 [12]: 0.282 µM (active)
- GI50 [13]: 1.59 µM (inactive)
- GI50 [14]: 0.573 µM (active)
- GI50 [15]: 2.11 µM (inactive)
- GI50 [16]: 0.271 µM (active)
- GI50 [17]: 0.33 µM (active)
- GI50 [18]: 2.17 µM (inactive)
- GI50 [19]: 0.363 µM (active)
- GI50 [20]: 2.15 µM (inactive)

Structure (SMILES): Oc1nc2nc3ccccc3nc2nc1O
- GI50 [1]: > 100 µM (inactive)
- GI50 [2]: > 100 µM (inactive)
- GI50 [3]: > 100 µM (inactive)
- GI50 [4]: > 100 µM (inactive)
- GI50 [5]: > 100 µM (inactive)
- GI50 [6]: > 100 µM (inactive)
- GI50 [7]: > 100 µM (inactive)
- GI50 [8]: > 100 µM (inactive)
- GI50 [9]: > 100 µM (inactive)
- GI50 [10]: > 100 µM (inactive)
- GI50 [11]: > 100 µM (inactive)
- GI50 [12]: > 100 µM (inactive)
- GI50 [13]: > 100 µM (inactive)
- GI50 [14]: > 100 µM (inactive)
- GI50 [15]: > 100 µM (inactive)
- GI50 [16]: > 100 µM (inactive)
- GI50 [17]: > 100 µM (inactive)
- GI50 [18]: > 100 µM (inactive)
- GI50 [19]: > 100 µM (inactive)
- GI50 [20]: > 100 µM (inactive)

Structure (SMILES): CC(/C=C/C(=O)NO)=C\C(C)C(=O)c1ccc(N(C)C)cc1 (stereo unspecified)
- GI50 [1]: 0.0339 µM (active)
- GI50 [2]: < 0.01 µM (active)
- GI50 [3]: 0.0176 µM (active)
- GI50 [4]: < 0.01 µM (active)
- GI50 [5]: 0.207 µM (active)
- GI50 [6]: 0.0325 µM (active)
- GI50 [7]: 0.0668 µM (active)
- GI50 [8]: < 0.01 µM (active)
- GI50 [9]: 0.0184 µM (active)
- GI50 [10]: 0.188 µM (active)
- GI50 [11]: 0.0331 µM (active)
- GI50 [12]: < 0.01 µM (active)
- GI50 [13]: < 0.01 µM (active)
- GI50 [14]: 0.0498 µM (active)
- GI50 [15]: 0.0281 µM (active)
- GI50 [16]: < 0.0112 µM (active)
- GI50 [17]: < 0.01 µM (active)
- GI50 [18]: < 0.01 µM (active)
- GI50 [19]: < 0.0177 µM (active)
- GI50 [20]: 0.0614 µM (active)

Structure (SMILES): COC(=O)Nc1nc2ccccc2[nH]1 [CARBENDAZIM]
- GI50 [1]: 9.53 µM (inactive)
- GI50 [2]: 21.2 µM (inactive)
- GI50 [3]: 5.18 µM (inactive)
- GI50 [4]: 5.37 µM (inactive)
- GI50 [5]: 4.26 µM (inactive)
- GI50 [7]: 4.69 µM (inactive)
- GI50 [8]: 5.07 µM (inactive)
- GI50 [9]: 27.8 µM (inactive)
- GI50 [10]: 10.4 µM (inactive)
- GI50 [11]: 14.2 µM (inactive)
- GI50 [12]: 3.13 µM (inactive)
- GI50 [13]: 10.8 µM (inactive)
- GI50 [14]: 3.44 µM (inactive)
- GI50 [15]: 10.1 µM (inactive)
- GI50 [16]: 7.33 µM (inactive)
- GI50 [17]: 3.57 µM (inactive)
- GI50 [18]: 9.51 µM (inactive)
- GI50 [19]: > 49.2 µM (inactive)
- GI50 [20]: > 61 µM (inactive)

Structure (SMILES): Cc1[nH]c(=O)[nH]c(=O)c1N(CCF)CCCl [FLUORODOPAN]
- GI50 [1]: 451 µM (inactive)
- GI50 [2]: 57.4 µM (inactive)
- GI50 [3]: 582 µM (inactive)
- GI50 [4]: 353 µM (inactive)
- GI50 [5]: 70.8 µM (inactive)
- GI50 [6]: 244 µM (inactive)
- GI50 [7]: 381 µM (inactive)
- GI50 [8]: 256 µM (inactive)
- GI50 [9]: 362 µM (inactive)
- GI50 [10]: 560 µM (inactive)
- GI50 [11]: 348 µM (inactive)
- GI50 [12]: 240 µM (inactive)
- GI50 [14]: 536 µM (inactive)
- GI50 [15]: 316 µM (inactive)
- GI50 [16]: 79.6 µM (inactive)
- GI50 [18]: 292 µM (inactive)
- GI50 [19]: 495 µM (inactive)
- GI50 [20]: 443 µM (inactive)
